Experimental data as given in ChEMBL document CHEMBL1201862, “PubChem BioAssay data set” (2004).
The source made the active and inactive calls.

Columns and labels:
[1] = molecular target: T1, Alkaline phosphatase, tissue-nonspecific isozyme (Homo sapiens, UniProt P05186); test: inhibition of tissue-nonspecific alkaline phosphatase – biochemical, dose response (AID 488882); type: functional
T1 sequence (P05186 whole entry): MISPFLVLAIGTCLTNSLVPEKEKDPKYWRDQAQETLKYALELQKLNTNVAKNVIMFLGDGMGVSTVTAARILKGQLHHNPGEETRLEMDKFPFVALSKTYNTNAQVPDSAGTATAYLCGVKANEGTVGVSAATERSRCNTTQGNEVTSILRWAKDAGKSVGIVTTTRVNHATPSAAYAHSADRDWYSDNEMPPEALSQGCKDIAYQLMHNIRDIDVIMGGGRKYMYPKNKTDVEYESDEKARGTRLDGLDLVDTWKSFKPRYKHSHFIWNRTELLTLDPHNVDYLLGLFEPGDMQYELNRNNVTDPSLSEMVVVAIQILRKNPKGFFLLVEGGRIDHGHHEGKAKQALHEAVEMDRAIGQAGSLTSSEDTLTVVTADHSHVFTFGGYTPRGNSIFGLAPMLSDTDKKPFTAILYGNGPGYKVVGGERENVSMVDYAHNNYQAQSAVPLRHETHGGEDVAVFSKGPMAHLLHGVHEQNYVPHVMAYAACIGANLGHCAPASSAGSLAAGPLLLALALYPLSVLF

[2] = molecular target: T2, Intestinal-type alkaline phosphatase (Mus musculus, UniProt P24822); test: PubChem AID 488874; type: functional
[3] = molecular target: T3, Intestinal-type alkaline phosphatase (Homo sapiens, UniProt P09923); test: inhibition of human intestinal alkaline phosphatase – biochemical, luminescent, uHTS hits, set 2, dose response (AID 488793); type: functional
[4] = molecular target: T3, Intestinal-type alkaline phosphatase; test: Dose Response confirmation of uHTS hits from a small molecule inhibitors of human intestinal alkaline phosphatase via a luminescent assay. [Related pubchem assays (depositor defined):AID2544, AID2574]; type: functional
[5] = molecular target: T4, SUMO-activating enzyme (Homo sapiens, UniProt Q9UBT2); test: blockers of SAE1/SAE2–UBC9 SUMO transfer – biochemical, HTRF, uHTS, primary screen (AID 2006); type: protein-complex assay
[6] = molecular target: SUMO E1/E2 (Homo sapiens, UniProt P63279+Q9UBE0+Q9UBT2); test: SAR analysis of SUMOylation using HTRF in an in-Vitro dose response assay. [Related pubchem assays (depositor defined):AID2006, AID2011, AID2018, AID2069, AID2658]; type: functional
[7] = molecular target: T4, SUMO-activating enzyme; test: blockers of UBC9-mediated SUMO conjugation – biochemical, AlphaScreen, SUMOylation inhibitor project, confirmation (AID 2018); type: functional
[8] = molecular target: T3, Intestinal-type alkaline phosphatase; test: human intestinal alkaline phosphatase activators, dose response, biochemical, luminescence, uHTS hits (AID 463120); type: functional
[9] = molecular target: T1, Alkaline phosphatase, tissue-nonspecific isozyme; test: activation of tissue-nonspecific alkaline phosphatase – biochemical, TNAP isozyme, human IAP uHTS hits, selectivity assay for human IAP activator project, dose response (AID 488886); type: functional;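 further: potency of compounds raising TNAP activity as a selectivity check on IAP activators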
[10] = molecular target: T2, Intestinal-type alkaline phosphatase; test: PubChem AID 488875; type: functional
[11] = molecular target: T3, Intestinal-type alkaline phosphatase; test: activation of human intestinal alkaline phosphatase – biochemical, luminescent, uHTS hits, set 2, dose response (AID 488817); type: functional;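 further: potency of activators that raise enzyme activity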
[12] = T. cruzi infection blockers in NIH3T3 cells – beta-gal luminescence, NIH3T3 host cells, confirmation (AID 2630); type: functional, cell-based; conditions: Mus musculus

T3 sequence (P09923 whole entry): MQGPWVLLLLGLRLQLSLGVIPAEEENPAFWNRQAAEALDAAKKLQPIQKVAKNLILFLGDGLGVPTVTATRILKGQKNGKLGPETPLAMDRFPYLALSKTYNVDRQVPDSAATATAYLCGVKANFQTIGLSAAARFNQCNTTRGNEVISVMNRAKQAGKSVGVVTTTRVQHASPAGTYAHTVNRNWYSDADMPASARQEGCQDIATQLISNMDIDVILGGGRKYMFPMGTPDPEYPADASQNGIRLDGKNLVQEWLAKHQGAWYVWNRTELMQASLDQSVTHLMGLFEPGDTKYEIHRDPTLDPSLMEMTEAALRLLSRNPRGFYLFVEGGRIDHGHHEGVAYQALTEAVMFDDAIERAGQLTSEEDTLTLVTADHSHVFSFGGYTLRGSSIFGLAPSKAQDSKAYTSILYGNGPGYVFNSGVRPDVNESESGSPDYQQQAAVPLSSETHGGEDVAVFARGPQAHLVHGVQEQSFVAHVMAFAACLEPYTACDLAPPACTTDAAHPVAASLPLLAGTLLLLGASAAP
T4 sequence (Q9UBE0 whole entry): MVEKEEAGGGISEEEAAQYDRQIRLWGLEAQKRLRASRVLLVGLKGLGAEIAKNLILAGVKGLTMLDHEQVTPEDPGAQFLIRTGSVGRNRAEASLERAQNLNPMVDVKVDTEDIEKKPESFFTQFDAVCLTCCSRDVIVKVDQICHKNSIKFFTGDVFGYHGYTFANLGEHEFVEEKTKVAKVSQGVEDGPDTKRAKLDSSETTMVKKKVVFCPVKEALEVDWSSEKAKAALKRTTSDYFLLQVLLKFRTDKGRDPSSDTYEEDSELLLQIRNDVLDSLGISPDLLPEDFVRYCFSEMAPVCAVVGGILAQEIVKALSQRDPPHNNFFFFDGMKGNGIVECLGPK
T4 sequence (Q9UBT2 whole entry): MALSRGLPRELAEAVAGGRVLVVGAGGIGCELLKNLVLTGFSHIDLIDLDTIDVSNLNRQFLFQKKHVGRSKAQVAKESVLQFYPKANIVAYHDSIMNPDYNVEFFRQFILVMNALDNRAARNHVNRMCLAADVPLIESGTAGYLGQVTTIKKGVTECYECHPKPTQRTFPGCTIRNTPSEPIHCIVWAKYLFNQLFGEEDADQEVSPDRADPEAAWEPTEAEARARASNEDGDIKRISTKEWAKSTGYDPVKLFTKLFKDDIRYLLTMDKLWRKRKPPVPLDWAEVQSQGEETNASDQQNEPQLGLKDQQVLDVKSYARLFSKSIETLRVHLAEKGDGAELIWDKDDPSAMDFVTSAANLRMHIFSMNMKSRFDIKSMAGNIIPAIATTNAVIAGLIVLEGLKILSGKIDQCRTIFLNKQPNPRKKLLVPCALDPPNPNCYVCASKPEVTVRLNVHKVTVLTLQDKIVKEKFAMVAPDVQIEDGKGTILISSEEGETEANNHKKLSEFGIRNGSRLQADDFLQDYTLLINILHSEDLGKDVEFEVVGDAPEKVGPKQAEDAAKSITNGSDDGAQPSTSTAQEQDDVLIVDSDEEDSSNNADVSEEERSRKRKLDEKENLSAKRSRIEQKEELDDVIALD
T2 sequence (P24822 whole entry): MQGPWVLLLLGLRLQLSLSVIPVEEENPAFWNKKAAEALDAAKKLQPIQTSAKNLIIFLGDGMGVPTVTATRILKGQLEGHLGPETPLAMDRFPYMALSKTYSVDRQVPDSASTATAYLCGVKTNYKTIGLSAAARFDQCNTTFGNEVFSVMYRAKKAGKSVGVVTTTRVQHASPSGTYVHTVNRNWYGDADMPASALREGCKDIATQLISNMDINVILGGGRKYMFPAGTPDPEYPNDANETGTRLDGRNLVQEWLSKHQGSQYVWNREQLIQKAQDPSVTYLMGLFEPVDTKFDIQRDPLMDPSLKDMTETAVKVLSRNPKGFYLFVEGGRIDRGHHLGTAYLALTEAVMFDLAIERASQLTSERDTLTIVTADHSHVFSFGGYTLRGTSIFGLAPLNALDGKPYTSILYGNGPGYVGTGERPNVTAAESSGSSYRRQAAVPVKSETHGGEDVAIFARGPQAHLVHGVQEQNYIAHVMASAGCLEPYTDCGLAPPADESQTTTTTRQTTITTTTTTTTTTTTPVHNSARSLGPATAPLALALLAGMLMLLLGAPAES
Chain of SUMO E1/E2 (Q9UBE0 whole entry): as the sequence (Q9UBE0 whole entry) above
Chain of SUMO E1/E2 (Q9UBT2 whole entry): as the sequence (Q9UBT2 whole entry) above
Chain of SUMO E1/E2 (P63279 whole entry): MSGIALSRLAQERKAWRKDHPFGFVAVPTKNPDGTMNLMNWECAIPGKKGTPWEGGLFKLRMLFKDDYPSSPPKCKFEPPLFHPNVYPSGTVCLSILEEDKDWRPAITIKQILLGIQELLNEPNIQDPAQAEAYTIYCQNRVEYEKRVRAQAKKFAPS

## c1ccc(CSCCc2ccncc2)cc1
[1]
  IC50: 47.9 µM (active)
[2]
  IC50: > 100 µM (inactive)
[3]
  IC50: 23.4 µM (active)
[4]
  IC50: 23.1 µM (inactive)

## COc1cc(C2c3c(oc4ccccc4c3=O)C(=O)N2c2nccs2)ccc1O (configuration not stated)
[5]
  IC50: 36 µM (active)
[6]
  IC50: 81.5 µM (active)
[7]
  IC50: 12.7 µM (active)

## COc1cc(OC)cc(C(=O)NNC(=O)c2nn(C)c(=O)c3ccccc23)c1
[8]
  EC50: 11.8 µM (active)
[9]
  EC50: 11.8 µM (active)
[10]
  EC50: > 100 µM (inactive)
[11]
  EC50: 12.4 µM (active)

## CCn1cc(CN2CCCC(C(=O)c3cccc(C(F)(F)F)c3)C2)cn1 (configuration not stated)
[12]
  EC50: 0.25 µM (active)
